Tests used:
[1] = system: rat elastase-induced emphysema; test: Repair of alveoli in elastase-induced emphysema (rat model); type: in vivo, male Sprague Dawley rats; details: oral, once daily starting 21 days post elastase injury, morphometric analysis of lung sections
Protocol: A RAR selective agonist according to the invention was evaluated for its effects on alveolar repair in a rat model for rat elastase-induced emphysema in accordance to D. Massaro et al. Nature Medicine1997, 3, 675. Animals were divided into treatment groups of approximately eight. Lung inflammation and alveolar damage was induced in male Sprague Dawley rats by a single instillation of pancreatic elastase(porcine derived, Calbiochem) 2 U/gram body mass. Three weeks post injury, all-trans retinoic acid or RAR agonist test compound was dissolved in dimethyl-sulfoxide (20 mg/ml) and stored at −20 C. Fresh working stocks were prepared daily by dilution in PBS to a final concentration of 2mg/ml. Animals were dosed once daily with the retinoid by intraperitoneal injection or orally, starting 21 days post injury. Control groups were challenged with elastase and 21 days later treated with Vehicle (DMSO/PBS) for 14 days. Animals were sacrificed 24 hours after the last dose by exsanguination under deep anesthesia.
The lungs were inflated with 10% neutral buffered formalin by intratracheal instillation at a constant rate (1 ml/gram body mass/min). The lung was excised and immersed in fixative for 24 hours prior to processing. Standard methods were used to prepare 5 μm paraffin sections. Sections were stained with Hematoxylin and Eosin (H%E). Computerized Morphometric analysis was performed to determine the average alveolar size and alveolar number.

Compound | % repair area ([1]; dose 0.0001 mg/kg) [%] | % repair area ([1]; dose 0.001 mg/kg) [%] | % repair area ([1]; dose 0.01 mg/kg) [%] | % repair area ([1]; dose 0.1 mg/kg) [%] | melting point [°C]
CCCCCCc1cc2c(cc1/C=C/c1ccc(C(=O)O)s1)C(C)(C)CCC2(C)C [Example 9, (E)-5-[2-(3-Hexyl-5,5,8,8-tetramethyl-5,6,7,8-tetrahydro-naphthalen-2-yl)-vinyl]-thiophene-2-carboxylic Acid] | 38 | 42 | 18 | 42 | 
CCCCCc1cc2c(cc1/C=C/c1ccc(C(=O)O)s1)C(C)(C)CCC2(C)C [Example 9.2, (E)-5-[2-(3-pentyl-5,5,8,8-tetramethyl-5,6,7,8-tetrahydro-naphthalen-2-yl)-vinyl]thiophene-2-carboxylic acid] |  |  |  |  | 176 to 177

Source: US6403810B2, “Thiophene derivatives” (Hoffmann-La Roche Inc., priority 2000, dated 2002)
